Measured values: patent publication EP4810483A1, “6- AND 5-HETEROARYL DERIVATIVES AND USE THEREOF” (CMS Research & Development Pte. Ltd., priority 2023, dated 2025)

Columns and labels:
[1] = test system: maximal electroshock-induced epilepsy model; assay: Maximal electroshock-induced epilepsy model, behavioral pharmacodynamics; assay type: in vivo; conditions: dose 5 mg/kg, oral, one hour before electrical stimulation; male CD-1 mice
Excerpt: Assay Example 2: Evaluation of the behavioral pharmacodynamics of the test compounds in a maximal electroshock-induced epilepsy model
This study used behavioral tests in male CD-1 mice to investigate the effects of test compounds on acute epileptic seizures behavior induced by maximal electroshock.
Male CD-1 mice (25 to 35g) were used as the experimental animals and fed with standard feed (Beijing Vital River Laboratory Animal Technology Co., Ltd.).
After arriving at the animal facility, the experimental animals needed to acclimatize for at least one week. The mice were observed daily for vital signs, and randomly divided into groups according to their body weights one day before the drug administration. One hour before the electrical stimulation, different dosages of the test compound were orally administered to each group. On the day of the assay, the male CD-1 mice in each group were anesthetized locally at the cornea with 2% lidocaine. Then, silver bipolar electrodes were used to electrically stimulate the cornea of the mice with 18 mA, 60 Hz, a pulse width of 0.6 ms, and a stimulation time of 1 s to induce seizures. Subsequently, the latency of seizures and the duration of limb rigidity in mice after the electrical stimulation were observed, and the protection rate from seizures for each group was statistically analyzed.

[2] = target: T1, CYP1A2 (Homo sapiens, UniProt P05177); assay: Drug-drug interaction evaluation: CYP inhibition in human liver microsomes (cocktail method)
T1 sequence (P05177 1-516): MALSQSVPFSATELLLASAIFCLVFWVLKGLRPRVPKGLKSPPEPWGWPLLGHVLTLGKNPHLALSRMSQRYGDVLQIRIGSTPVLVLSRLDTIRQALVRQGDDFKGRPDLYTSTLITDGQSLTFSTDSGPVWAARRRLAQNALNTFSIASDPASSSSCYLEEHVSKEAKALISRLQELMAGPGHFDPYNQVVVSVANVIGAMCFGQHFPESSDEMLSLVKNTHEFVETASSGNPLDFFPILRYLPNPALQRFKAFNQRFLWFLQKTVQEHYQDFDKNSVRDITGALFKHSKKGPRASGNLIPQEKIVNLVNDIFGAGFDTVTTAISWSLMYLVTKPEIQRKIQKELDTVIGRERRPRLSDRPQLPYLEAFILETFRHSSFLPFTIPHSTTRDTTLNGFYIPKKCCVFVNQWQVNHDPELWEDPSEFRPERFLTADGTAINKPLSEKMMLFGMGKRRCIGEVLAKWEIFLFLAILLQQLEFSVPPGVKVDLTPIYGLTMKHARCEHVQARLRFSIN
Method: (§1) The cocktail method using specific probe substrates for CYP1A2, CYP2C9, CYP2C19, CYP2D6 and CYP3A was used to evaluate the inhibitory effect of the compounds on the activity of human liver microsomal cytochrome P450 isoenzymes (CYP1A2, CYP2C9, CYP2C19, CYP2D6 and CYP3A).
(§2) Human liver microsomes, probe substrates, positive control inhibitors, and reduced nicotinamide adenine dinucleotide phosphate (NADPH).
(§3) To the corresponding wells of a reaction plate, 20 µL of substrate solution was added; to blank wells, 20 µL of potassium phosphate buffer was added.
(§4) To the corresponding wells, 2 µL of test compound and positive control working solution were added; to inhibitor-free and blank wells, 2 µL of solvent was added.
(§5) Human liver microsome working solution was prepared, and 158 µL of human liver microsome working solution was added to each well of the reaction plate.
(§6) The plate was pre-incubated at 37.0°C for 10 minutes.
(§7) To start the reaction, 20 µL of NADPH cofactor working solution was added to the reaction plate.
(§8) After incubation in a 37.0°C water bath with mixing for 10 minutes, 400 µL of stop solution was added to terminate the reaction.
(§9) The sample plate was centrifuged at 4000 rpm for 20 minutes.
(§10) 200 µL of supernatant was taken and mixed with 100 µL of pure water as diluent, and the plate was shaken to mix well.
(§11) Analysis was performed by liquid chromatography-tandem mass spectrometry (LC-MS/MS).
(§12) Using the percentage of remaining activity as the ordinate and the test compound concentration as the abscissa, a non-linear regression analysis was performed with a three-parameter or four-parameter model using XL fit software to calculate the IC50 value.
(§13) y = (max)/(1 + (((x)/(IC50)))^−hillslope) [formula]
(§14) y = min + (max−min)/(1 + (((x)/(IC50)))^−hillslope) [formula]
(§15) max = maximum enzyme activity; min = minimum enzyme activity; x = concentration of test compound or positive control inhibitor; y = enzyme activity at the corresponding concentration; hillslope = slope; IC50 = half-maximal inhibitory concentration. The four-parameter equation was used when the minimum enzyme activity was within ±10%; otherwise the three-parameter equation was used.

[3] = target: CYP2C19 (Homo sapiens, UniProt P33261); assay: as above
Method: as §1, §2, §3, §4, §5, §6, §7, §8, §9, §10, §11, §12, §13, §14, §15

[4] = target: CYP2D6 (Homo sapiens, UniProt P10635); assay: as above
Method: as §1, §2, §3, §4, §5, §6, §7, §8, §9, §10, §11, §12, §13, §14, §15

[5] = target: CYP2C9 (Homo sapiens, UniProt P11712); assay: as above
Method: as §1, §2, §3, §4, §5, §6, §7, §8, §9, §10, §11, §12, §13, §14, §15

[6] = target: CYP3A4 (Homo sapiens, UniProt P08684); assay: as above
Method: as §1, §2, §3, §4, §5, §6, §7, §8, §9, §10, §11, §12, §13, §14, §15

[7] = target: T2, hKCNQ2/3 (Homo sapiens, UniProt O43525+O43526); assay: cell-based
T2 construct: expressed in transfected cells; host or cells: CHO
Excerpt: Test Method 1: hKCNQ2/3 Thallium Flux Assay
Test Objective: To test the in vitro concentration-response relationship of compounds using FLIPR thallium flux assay in CHO cell lines stably expressing hKCNQ2/3.
According to the split ratio, the cells were transferred to another T-75 flask containing complete cell growth medium. Note: To maintain logarithmic growth, the cells should be kept in a subconfluent monolayer state. Based on the cell doubling time, the cells were passaged every 2-3 days.
• (1) Day 1 - Cell preparation: Cells were digested as described above, and cell density and viability were determined using a Cell Countess. The volume of the single-cell suspension was adjusted with complete cell growth medium. Then, hKCNQ2/3_CHO cells were seeded onto PDL-precoated 384-well plates at a density of approximately 20,000 cells/well (30 µL/well). The plates were then incubated overnight in a 37°C, 5% CO2 humidified air incubator. • (2) Day 2 - Compound preparation: Test compounds were diluted with dimethyl sulfoxide (DMSO) to stock concentrations and stored in a -20°C freezer. A compound addition program was set up on the ECHO liquid handler, and compounds were added to the plates using the ECHO liquid handler. Retigabine (RTG) was used as a positive control at a highest concentration of 100 µM with 3-fold serial dilutions for a total of 9 doses. Buffer containing 5 mM K^+ and 1 mM Tl^+ was added to the plates. Notes: 1) K2SO4 and Tl2SO4 were prepared in 1× chloride-free buffer. Depending on the voltage-gated potassium channel involved, the concentrations of Tl^+ and K^+ should be adjusted. Tl^+ concentration is approximately 0.5-5 mM, and K^+ concentration is approximately 5-30 mM. 2) Each 1 mM solution of K2SO4 and Tl2SO4 contains 2 mM K^+ and Tl^+; the final concentration should be calculated based on the ion concentration. 3) TlCl readily precipitates and a chloride-free buffer is required. • (3) Day 2 -Assay testing: Once the cells reached the desired confluence, the cell assay plates were removed from the incubator. Assay buffer and diluted Tl^+ dye (Molecular Devices # R8222) were prepared. The medium was discarded using a Bravo liquid handler, and 25 µL of Tl^+ dye was added to each well. After 1 hour of incubation, the cell assay plates, composite plates and FLIPR tips were placed in the FLIPR^TETRA (Molecular Devices, USA) for FLIPR detection. After setting up the tips, baseline readings were taken for 60 seconds, then 12.5 µL was added from the composite plate (3×) to the cell assay plate, and data were recorded for at least 5 minutes. • (4) Data processing: Maximum signals were generated by the FLIPR software. […] Data quality control: S/B > 2.00, Z factor > 0.50.
• (1) Day 1 - Cell preparation: Cells were digested as described above, and cell density and viability were determined using a Cell Countess. The volume of the single-cell suspension was adjusted with complete cell growth medium. Then, hKCNQ2/3_CHO cells were seeded onto PDL-precoated 384-well plates at a density of approximately 20,000 cells/well (30 µL/well). The plates were then incubated overnight in a 37°C, 5% CO2 humidified air incubator. • (2) Day 2 - Compound preparation: Test compounds were diluted with dimethyl sulfoxide (DMSO) to stock concentrations and stored in a -20°C freezer. A compound addition program was set up on the ECHO liquid handler, and compounds were added to the plates using the ECHO liquid handler. Retigabine (RTG) was used as a positive control at a highest concentration of 100 µM with 3-fold serial dilutions for a total of 9 doses. Buffer containing 5 mM K^+ and 1 mM Tl^+ was added to the plates. Notes: 1) K2SO4 and Tl2SO4 were prepared in 1× chloride-free buffer. Depending on the voltage-gated potassium channel involved, the concentrations of Tl^+ and K^+ should be adjusted. Tl^+ concentration is approximately 0.5 mM -5 mM, and K^+ concentration is approximately 5 mM -30 mM.

Sequence of CYP2C19 (P33261 whole entry): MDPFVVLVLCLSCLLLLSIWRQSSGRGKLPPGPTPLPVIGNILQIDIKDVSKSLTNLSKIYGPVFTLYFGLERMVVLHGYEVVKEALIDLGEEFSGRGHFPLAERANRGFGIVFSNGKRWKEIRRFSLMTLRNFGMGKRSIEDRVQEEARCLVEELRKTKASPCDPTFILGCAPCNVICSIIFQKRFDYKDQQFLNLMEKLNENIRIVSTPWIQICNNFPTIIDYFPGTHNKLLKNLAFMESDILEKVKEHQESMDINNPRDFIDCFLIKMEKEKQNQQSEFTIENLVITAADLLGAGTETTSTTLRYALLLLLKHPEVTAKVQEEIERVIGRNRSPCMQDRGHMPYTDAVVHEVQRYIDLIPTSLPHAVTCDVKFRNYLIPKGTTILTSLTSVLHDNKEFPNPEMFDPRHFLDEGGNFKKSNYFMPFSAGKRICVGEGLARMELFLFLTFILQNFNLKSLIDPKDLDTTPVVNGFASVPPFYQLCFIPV
Sequence of CYP2C9 (P11712 whole entry): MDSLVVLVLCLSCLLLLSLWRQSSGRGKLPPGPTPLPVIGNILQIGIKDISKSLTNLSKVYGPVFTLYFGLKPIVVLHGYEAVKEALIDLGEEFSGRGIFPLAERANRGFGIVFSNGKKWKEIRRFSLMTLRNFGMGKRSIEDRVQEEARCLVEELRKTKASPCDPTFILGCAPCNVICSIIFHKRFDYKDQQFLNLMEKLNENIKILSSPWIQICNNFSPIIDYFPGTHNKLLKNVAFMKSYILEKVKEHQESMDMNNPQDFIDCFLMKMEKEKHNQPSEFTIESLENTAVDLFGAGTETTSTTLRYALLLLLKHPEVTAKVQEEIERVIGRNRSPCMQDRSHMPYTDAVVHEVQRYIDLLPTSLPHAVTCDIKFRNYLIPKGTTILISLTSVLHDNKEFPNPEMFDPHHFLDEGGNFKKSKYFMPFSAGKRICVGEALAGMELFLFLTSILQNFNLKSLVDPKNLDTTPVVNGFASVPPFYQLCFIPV
Sequence of CYP3A4 (P08684 2-503): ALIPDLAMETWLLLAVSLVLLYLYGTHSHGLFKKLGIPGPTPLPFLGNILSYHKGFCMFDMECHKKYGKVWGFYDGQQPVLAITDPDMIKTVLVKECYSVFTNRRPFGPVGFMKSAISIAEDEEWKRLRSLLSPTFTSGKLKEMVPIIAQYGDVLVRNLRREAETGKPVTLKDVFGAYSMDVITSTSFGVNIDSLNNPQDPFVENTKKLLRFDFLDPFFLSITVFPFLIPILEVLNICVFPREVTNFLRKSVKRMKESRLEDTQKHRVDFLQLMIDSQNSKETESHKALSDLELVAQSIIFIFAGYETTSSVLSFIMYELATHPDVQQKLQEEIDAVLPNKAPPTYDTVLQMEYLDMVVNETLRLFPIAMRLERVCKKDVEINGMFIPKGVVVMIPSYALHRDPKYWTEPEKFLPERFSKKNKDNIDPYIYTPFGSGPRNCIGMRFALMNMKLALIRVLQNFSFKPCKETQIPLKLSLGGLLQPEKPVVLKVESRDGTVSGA
Sequence of CYP2D6 (P10635 whole entry): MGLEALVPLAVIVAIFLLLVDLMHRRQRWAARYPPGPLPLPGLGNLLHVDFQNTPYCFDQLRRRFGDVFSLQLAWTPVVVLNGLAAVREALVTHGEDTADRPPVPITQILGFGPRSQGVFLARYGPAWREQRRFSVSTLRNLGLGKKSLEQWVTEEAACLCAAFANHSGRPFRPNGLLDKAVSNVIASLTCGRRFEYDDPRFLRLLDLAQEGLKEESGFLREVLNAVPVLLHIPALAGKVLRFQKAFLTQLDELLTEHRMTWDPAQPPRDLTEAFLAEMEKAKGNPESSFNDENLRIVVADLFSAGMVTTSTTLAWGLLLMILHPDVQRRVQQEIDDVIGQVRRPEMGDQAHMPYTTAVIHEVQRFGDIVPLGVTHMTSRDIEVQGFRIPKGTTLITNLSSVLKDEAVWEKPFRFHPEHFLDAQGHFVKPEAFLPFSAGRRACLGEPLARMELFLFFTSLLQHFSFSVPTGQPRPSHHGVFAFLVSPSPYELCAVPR
T2 sequence (O43526 whole entry): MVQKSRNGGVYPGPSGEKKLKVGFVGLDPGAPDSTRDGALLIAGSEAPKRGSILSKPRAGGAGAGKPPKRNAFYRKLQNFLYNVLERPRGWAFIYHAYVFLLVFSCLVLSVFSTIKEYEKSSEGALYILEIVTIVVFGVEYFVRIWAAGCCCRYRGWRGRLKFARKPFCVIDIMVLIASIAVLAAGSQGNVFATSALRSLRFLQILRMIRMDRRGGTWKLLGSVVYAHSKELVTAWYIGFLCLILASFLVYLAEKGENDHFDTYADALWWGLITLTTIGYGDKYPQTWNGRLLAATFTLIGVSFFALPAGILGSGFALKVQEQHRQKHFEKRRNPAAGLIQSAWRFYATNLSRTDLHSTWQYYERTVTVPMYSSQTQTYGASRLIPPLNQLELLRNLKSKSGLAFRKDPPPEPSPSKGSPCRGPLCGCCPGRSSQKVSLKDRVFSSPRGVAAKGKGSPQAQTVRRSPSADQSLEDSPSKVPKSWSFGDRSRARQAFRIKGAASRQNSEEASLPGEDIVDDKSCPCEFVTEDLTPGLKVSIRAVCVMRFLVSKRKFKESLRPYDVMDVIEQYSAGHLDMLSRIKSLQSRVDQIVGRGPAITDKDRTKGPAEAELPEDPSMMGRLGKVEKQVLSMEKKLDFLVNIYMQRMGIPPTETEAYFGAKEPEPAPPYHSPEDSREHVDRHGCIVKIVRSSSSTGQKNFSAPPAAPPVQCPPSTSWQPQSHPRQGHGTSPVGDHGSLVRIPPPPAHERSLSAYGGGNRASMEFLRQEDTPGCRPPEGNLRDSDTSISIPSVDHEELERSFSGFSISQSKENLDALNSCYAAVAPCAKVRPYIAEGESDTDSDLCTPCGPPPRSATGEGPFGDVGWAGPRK
T2 sequence (O43525 whole entry): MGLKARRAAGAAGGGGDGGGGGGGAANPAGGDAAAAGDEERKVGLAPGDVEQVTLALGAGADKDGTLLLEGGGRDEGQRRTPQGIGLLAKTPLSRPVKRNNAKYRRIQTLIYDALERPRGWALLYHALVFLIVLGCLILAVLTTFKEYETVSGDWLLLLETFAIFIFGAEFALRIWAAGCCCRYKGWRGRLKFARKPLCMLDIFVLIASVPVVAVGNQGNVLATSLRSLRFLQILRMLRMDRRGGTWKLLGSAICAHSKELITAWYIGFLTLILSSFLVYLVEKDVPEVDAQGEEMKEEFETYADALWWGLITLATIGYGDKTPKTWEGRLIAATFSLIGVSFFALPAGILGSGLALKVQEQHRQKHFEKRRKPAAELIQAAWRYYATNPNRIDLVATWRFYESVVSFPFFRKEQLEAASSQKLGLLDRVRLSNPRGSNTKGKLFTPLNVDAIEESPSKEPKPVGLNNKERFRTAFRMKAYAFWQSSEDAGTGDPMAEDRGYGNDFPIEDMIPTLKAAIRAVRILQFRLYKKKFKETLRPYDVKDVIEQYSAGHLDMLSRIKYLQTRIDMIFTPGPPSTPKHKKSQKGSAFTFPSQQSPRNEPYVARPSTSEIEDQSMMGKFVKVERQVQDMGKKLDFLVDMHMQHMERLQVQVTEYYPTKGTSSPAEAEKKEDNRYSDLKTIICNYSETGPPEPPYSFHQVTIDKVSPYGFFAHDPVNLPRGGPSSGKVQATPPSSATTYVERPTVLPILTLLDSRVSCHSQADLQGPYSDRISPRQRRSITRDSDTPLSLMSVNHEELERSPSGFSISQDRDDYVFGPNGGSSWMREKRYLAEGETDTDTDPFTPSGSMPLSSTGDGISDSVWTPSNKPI

SMILES	Seizure incidence (%) [1]	IC50 [2]	IC50 [3]	IC50 [4]	IC50 [5]	IC50 [6]	EC50 [7]
Cc1cc(F)cnc1Nc1ccc2c(C)c(NC(=O)CC(C)(C)C)n(C)c2c1 [Compound 31]	16.7%	> 50 µM	> 50 µM	> 50 µM	> 50 µM	> 50 µM	
Cc1c(NC(=O)CC2(C)CC2)n(C)c2cc(Nc3ncc(F)cc3F)ccc12 [Compound 35]		> 50 µM	> 50 µM	> 50 µM	> 50 µM	> 50 µM	0.49 µM
